Experiments:
Assay in all cases: relative viability (nuclei count vs DMSO), 5 days (fraction); higher = more cells survive
Midostaurin + Trametinib = compound: CO[C@@H]1[C@H](N(C)C(=O)c2ccccc2)C[C@H]2O[C@]1(C)n1c3ccccc3c3c4c(c5c6ccccc6n2c5c31)C(=O)NC4 [Midostaurin] + CC(=O)Nc1cccc(-n2c(=O)n(C3CC3)c(=O)c3c(Nc4ccc(I)cc4F)n(C)c(=O)c(C)c32)c1 [Trametinib] (partner 0.02 µM)
Outline: (§1)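 Values are medians from duplicate plates. Each reflects relative viability, defined as the nuclei count of treated wells over that of vehicle wells. Lung cancer cell lines in 1536-well plates were pin-tool dosed one day after seeding with one drug alone or with a fixed anchor-drug dose plus five library-drug doses (not always all listed) in √10 steps, then fixed, stained and imaged at 4× after 5 days.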

Midostaurin + Lapatinib = compound: CO[C@@H]1[C@H](N(C)C(=O)c2ccccc2)C[C@H]2O[C@]1(C)n1c3ccccc3c3c4c(c5c6ccccc6n2c5c31)C(=O)NC4 [Midostaurin] + CS(=O)(=O)CCNCc1ccc(-c2ccc3ncnc(Nc4ccc(OCc5cccc(F)c5)c(Cl)c4)c3c2)o1 [Lapatinib] (partner 2 µM)
Outline: as §1

Midostaurin + Pictilisib = compound: CO[C@@H]1[C@H](N(C)C(=O)c2ccccc2)C[C@H]2O[C@]1(C)n1c3ccccc3c3c4c(c5c6ccccc6n2c5c31)C(=O)NC4 [Midostaurin] + CS(=O)(=O)N1CCN(Cc2cc3nc(-c4cccc5[nH]ncc45)nc(N4CCOCC4)c3s2)CC1 [Pictilisib] (partner 1 µM)
Outline: as §1

Midostaurin + AZD7762 = compound: CO[C@@H]1[C@H](N(C)C(=O)c2ccccc2)C[C@H]2O[C@]1(C)n1c3ccccc3c3c4c(c5c6ccccc6n2c5c31)C(=O)NC4 [Midostaurin] + NC(=O)Nc1cc(-c2cccc(F)c2)sc1C(=O)N[C@H]1CCCNC1 [AZD7762] (partner 0.2 µM)
Outline: as §1

[1] = compound: COc1cc(-c2nn([C@H]3CC[C@H](N4CCN(C(C)=O)CC4)CC3)c3ncnc(N)c23)ccc1NC(=O)c1cc2ccccc2n1C + N=C(N)NC(=N)NCCc1ccccc1 [Phenformin] (partner 250 µM)
Outline: as §1

Cell Line	relative viability (Midostaurin + Trametinib; first compound 0.01 µM)	relative viability (Midostaurin + Trametinib; first compound 0.03162 µM)	relative viability (Midostaurin + Trametinib; first compound 0.1 µM)	relative viability (Midostaurin + Trametinib; first compound 0.3162 µM)	relative viability (Midostaurin + Lapatinib; first compound 0.01 µM)	relative viability (Midostaurin + Lapatinib; first compound 0.03162 µM)	relative viability (Midostaurin + Lapatinib; first compound 0.1 µM)	relative viability (Midostaurin + Lapatinib; first compound 0.3162 µM)	relative viability (Midostaurin + Pictilisib; first compound 0.01 µM)	relative viability (Midostaurin + Pictilisib; first compound 0.03162 µM)	relative viability (Midostaurin + Pictilisib; first compound 0.1 µM)	relative viability (Midostaurin + Pictilisib; first compound 0.3162 µM)	relative viability (Midostaurin + AZD7762; first compound 0.01 µM)	relative viability (Midostaurin + AZD7762; first compound 0.03162 µM)	relative viability (Midostaurin + AZD7762; first compound 0.1 µM)	relative viability (Midostaurin + AZD7762; first compound 0.3162 µM)	relative viability ([1]; first compound 0.0128 µM)	relative viability ([1]; first compound 0.04048 µM)	relative viability ([1]; first compound 0.128 µM)	relative viability ([1]; first compound 1.28 µM)
NCI-H1975	0.344	0.388	0.357	0.416	0.82	0.893	0.871	0.665	0.277	0.273	0.263	0.248	0.818	0.756	0.673	0.654	0.393	0.392	0.385	0.254
CAL-12T	0.399	0.298	0.331	0.33	0.726	0.447	0.603	0.498	0.457	0.417	0.334	0.413	0.608	0.553	0.469	0.452	0.588	0.465	0.572	0.416
NCI-H1623	–	–	–	–	–	–	–	–	–	–	–	–	–	–	–	–	0.622	0.508	0.603	0.53
HCC-44	1.05	1.01	1.06	1.05	1.01	0.985	1.04	1.13	0.571	0.576	0.692	0.327	0.961	0.978	0.998	0.986	0.367	0.187	0.305	0.22
EKVX	0.321	0.348	0.292	0.351	0.214	0.127	0.242	0.212	0.487	0.367	0.473	0.483	0.604	0.713	0.883	0.778	0.234	0.245	0.211	0.199
NCI-H1651	0.81	0.804	0.795	0.949	0.74	0.931	0.787	1.05	0.543	0.575	0.529	0.512	0.455	0.557	0.459	0.478	0.352	0.329	0.3	0.31
NCI-H1944	0.419	0.398	0.39	0.413	0.783	0.794	0.898	0.977	0.388	0.294	0.372	0.327	0.507	0.616	0.493	0.56	0.238	0.198	0.184	0.165
NCI-H1703	–	–	–	–	1.04	1.08	1.1	0.317	0.276	0.226	0.245	0.197	0.141	0.115	0.123	0.12	–	–	–	–
Calu-6	–	–	–	–	0.94	1.02	1.02	0.986	0.876	0.837	0.937	0.771	–	–	–	–	–	–	–	–
EBC-1	–	–	–	–	0.208	0.212	0.217	0.222	0.504	0.272	0.294	0.196	–	–	–	–	–	–	–	–
SW 1573	0.547	0.788	0.471	0.465	1.2	1.17	1.06	1.07	0.557	0.474	0.456	0.454	–	–	–	–	0.344	0.34	0.371	0.399
A-427	0.671	0.809	0.712	0.637	0.95	0.993	0.835	1.1	0.75	0.614	0.702	0.578	0.742	0.727	0.871	0.723	0.335	–	0.268	0.254
NCI-H2347	0.29	0.278	0.309	0.337	0.883	0.863	0.956	1.11	0.48	0.493	0.648	0.634	0.799	0.774	0.712	0.587	0.51	–	0.482	0.346
NCI-H1355	0.413	0.459	0.477	0.487	0.979	0.959	1.08	1.09	0.415	0.381	0.401	0.526	0.703	0.798	0.766	0.674	0.476	0.401	0.459	0.41
NCI-H2228	0.522	0.634	0.792	0.723	0.966	1.07	1.23	0.972	0.422	0.454	0.452	0.617	–	–	–	–	0.278	0.26	0.327	0.327
IA-LM	–	–	–	–	0.886	0.579	0.984	0.551	0.405	–	0.497	0.449	–	–	–	–	–	–	–	–
COR-L23	0.599	0.555	0.573	0.497	0.922	1.1	0.835	0.855	0.743	0.734	0.752	0.603	–	–	–	–	0.424	0.559	0.413	0.434

— the supplement of paper PMC10307832
